According to patent EP3788116B1, “CHEMILUMINESCENT IMIDAZOPYRAZINONE-BASED PHOTOSENSITIZERS WITH AVAILABLE SINGLET AND TRIPLET EXCITED STATES” (Universidade do Porto, priority 2018, dated 2019):

Columns and labels:
[1] = system: HepG2 human liver cancer cell lines; assay: MTT cytotoxicity assay; type: cell-based; conditions: HepG2, 24h exposure, versus control cell viability taken as 100%, read-out: toxicity
Method: (§1) To assess if the produced singlet oxygen can induce cytotoxicity in tumor cells, toxicity assays were performed in vitro with compound 1 in HepG2 human liver cancer cell lines. Cytotoxicity of compound 1 was evaluated through the MTT and LDH assay, which has been widely used as a colorimetric approach based on the activity of mitochondrial dehydrogenase enzyme in cells. MTT test was performed after an incubation of 24h and 48h. LDH release was monitored following an incubation of 24h and 48h with different concentrations of Compound 1 (1, 10, 20, 50 and 100 µM). Percent viability was obtained by comparing with control cell viability, considered as 100%. Data represents the mean ± SD of measurements of three independent experiments. Results of the one-way ANOVA factorial analysis. […] Thus, compound 1 was indeed able to induce cytotoxicity without the need of external excitation sources.

[2] = Singlet oxygen formation by quenching of ABDA fluorescence; conditions: increasing concentrations of compound (0-15 microMolar); no external excitation; sodium azide prevented the quenching
Method: The production of reactive triplet states by compound 1 was determined by assessing the formation of singlet oxygen. This latter species is formed by energy transfer from a triplet molecule to oxygen. To this end, 9,10-anthracenediyl-bis(methylene)dimalonic acid (ABDA) was added to a solution containing compound 1, as the fluorescence of ABDA is quenched by the formation of singlet oxygen. […] To confirm that the quenching of ABDA's fluorescence was due to the production of singlet oxygen, sodium azide was added to solutions containing ABDA and compound 1. Sodium azide is a known quencher of singlet oxygen. As expected, the addition of sodium azide prevented the quenching of the fluorescence emitted by ABDA (Figure 12).

[3] = system: HepG2 human liver cancer cell lines; assay: LDH release cytotoxicity assay; type: cell-based; conditions: HepG2, 24h exposure, read-out: toxicity
Method: as §1

Q: With `Cc1nc2c(Br)[nH]c(-c3ccc(O)cc3)cn-2c1=O` [Compound 1, 8-bromo-6-(4-hydroxyphenyl)-2-methylimidazo[1,2-a]pyrazin-3(7H)-one] as the compound, how does the cytotoxicity at 50 µM ([1]; 50 µM) read?
A: 15%

Q: And the cytotoxicity at 100 µM ([1]; 100 µM)?
A: 12%

Q: What about the “fluorescence intensity of ABDA” value [2] of the same compound?
A: decreased significantly

Q: And the cytotoxicity at 50 µM ([3]; 50 µM)?
A: 15%

Q: What about the cytotoxicity at 100 µM ([3]; 100 µM) of the same compound?
A: 12%
